Experimental data as given in US10829520B2, “Beta-hairpin peptidomimetics” (POLYPHOR AG, priority 2015, dated 2020).
Where a SMILES comes first, the peptide text is derived from it. Bridges are numbered along the chain shown (N, C = ends). Roman numbers before positions name the chains, in order. [ ]: non-standard residue; d: D form. Tle = CC(C)(C)[C@H](N)C(=O)O; dDab = NCC[C@@H](N)C(=O)O; Nle = CCCC[C@H](N)C(=O)O; Dab = NCC[C@H](N)C(=O)O; Sar = CNCC(=O)O

Experiments:
Format in all cases: cell-based
[1] = tested on: Acinetobacter baumannii 872842; conditions: 872842
[2] = tested on: Acinetobacter baumannii DSM 30008; conditions: DSM 30008
Outline: (§1)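 Using the CLSI reference method, each strain at approx. 10^6 CFU/mL was exposed to serially diluted peptide in MH-II broth with 0.002% P-80. After 18-20 h at 35° C, the lowest concentration showing no visible growth gave the MIC.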

[3] = tested on: Escherichia coli 926415; conditions: 926415
[4] = tested on: Escherichia coli ATCC 25922; conditions: ATCC 25922
Outline: as §1

[5] = tested on: Klebsiella pneumoniae 968733; conditions: 968733
[6] = tested on: Klebsiella pneumoniae SSI #3010; conditions: SSI #3010
Outline: as §1

[7] = tested on: Pseudomonas aeruginosa ATCC 27853; conditions: ATCC 27853
Outline: as §1

[8] = tested on: human red blood cells (hRBC); test: Hemolysis of human red blood cells; conditions: red cells of human, 1 h
Outline: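 Washed fresh human erythrocytes (20% v/v, ~0.9×10^9 cells/mL final) were incubated with peptides at 100 μg/mL for 1 h at 37 °C with shaking. Supernatant OD540 measured; hemolysis expressed as % of 2.5% Triton X-100 lysis, with PBS/0.001% acetic acid as 0%.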

| Structure (SMILES) | Acinetobacter baumannii 872842 MIC [1] [µg/mL] | Acinetobacter baumannii DSM 30008 MIC [2] [µg/mL] | Escherichia coli 926415 MIC [3] [µg/mL] | Escherichia coli ATCC 25922 MIC [4] [µg/mL] | Klebsiella pneumoniae 968733 MIC [5] [µg/mL] | Klebsiella pneumoniae SSI #3010 MIC [6] [µg/mL] | Pseudomonas aeruginosa ATCC 27853 MIC [7] [µg/mL] | Hemolysis at 100 μg/mL ([8]; 100 μg/mL) [%] | Hemolysis at 100 μg/mL [8]; 100 [%] |
| --- | --- | --- | --- | --- | --- | --- | --- | --- | --- |
| CC(C)C[C@@H]1NC(=O)[C@@H](CC(C)C)NC(=O)[C@H](CCN)NC(=O)[C@@H](NC(=O)[C@H](CCN)NC(=O)[C@@H](NC(=O)[C@H](CCN)NC(=O)CN(C)C(=O)[C@@H]2CSSC[C@H](NC(=O)[C@@H](N)Cc3c[nH]c4ccccc34)C(=O)N[C@@H](C(C)C)C(=O)N[C@@H](C)C(=O)N[C@@H](CO)C(=O)N3CCC[C@@H]3C(=O)N3CCC[C@H]3C(=O)N[C@@H](CC(C)C)C(=O)N[C@@H](CO)C(=O)N[C@@H](Cc3ccc(O)cc3)C(=O)N2)[C@@H](C)O)CCNC(=O)[C@H](C(C)C)NC(=O)[C@H](CCN)NC(=O)[C@H](CCN)NC1=O [Ex. 179] (H-WCVAS[dP]PLSYC[Sar][Dab]T[Dab][Dab][Dab][dL]L[Dab][Dab]V; disulfide 2-11; lactam 16-C) | 0.0625 | 0.0625 | 0.125 | 0.0625 | 0.5 | 0.125 | 1 | <1 | – |
| CCCC[C@@H]1NC(=O)[C@@H]2CCCN2C(=O)[C@H]2CCCN2C(=O)[C@H](CO)NC(=O)[C@H](C)NC(=O)[C@H](C(C)(C)C)NC(=O)[C@H](CCN)NC(=O)[C@H](Cc2c[nH]c3ccccc23)NC(=O)[C@H](CCN)NC(=O)[C@@H](CCN)NC(=O)[C@H](CCC(=O)N[C@H](CCN)C(=O)N[C@H]2CCNC(=O)[C@H]([C@@H](C)O)NC(=O)[C@H](CCN)NC(=O)[C@H](CCN)NC(=O)[C@H](CC(C)C)NC(=O)[C@@H](CC(C)C)NC(=O)[C@H](CCN)NC2=O)NC(=O)[C@H](CCN)NC(=O)[C@H](Cc2ccc(O)cc2)NC(=O)[C@H](CO)NC1=O [Ex. 72] (I: cyclo(W[Dab][Tle]AS[dP]P[Nle]SY[Dab]E[dDab][Dab]) / II: [dDab][Dab][Dab][dL]L[Dab][Dab]T; amide I:12-II:N; lactam II:2-II:C) | 1 | 1 | 0.5 | 1 | 1 | 1 | 1 | – | <1 |
| CCCC[C@@H]1NC(=O)[C@@H]2CCCN2C(=O)[C@H]2CCCN2C(=O)[C@H](CO)NC(=O)[C@H](C)NC(=O)[C@H](C(C)(C)C)NC(=O)[C@H](CCN)NC(=O)[C@H](Cc2c[nH]c3ccccc23)NC(=O)[C@H](CCN)NC(=O)[C@@H](CCN)NC(=O)[C@H](CCC(=O)N[C@@H](CCN)C(=O)N[C@@H](C(=O)N[C@@H](CCN)C(=O)N[C@H]2CCNC(=O)[C@H]([C@@H](C)O)NC(=O)[C@H](CCN)NC(=O)[C@H](CCN)NC(=O)[C@H](CC(C)C)NC(=O)[C@@H](Cc3ccccc3)NC(=O)[C@H](CCN)NC2=O)[C@H](C)O)NC(=O)[C@H](CCN)NC(=O)[C@H](Cc2ccc(O)cc2)NC(=O)[C@H](CO)NC1=O [Ex. 81] (I: cyclo(W[Dab][Tle]AS[dP]P[Nle]SY[Dab]E[dDab][Dab]) / II: [Dab][dT][Dab][Dab][Dab][dF]L[Dab][Dab]T; amide I:12-II:N; lactam II:4-II:C) | 2 | 1 | 0.5 | 0.5 | 2 | 1 | 0.5 | – | 1 |
